In patent publication US20240043439A1, “COMPOUNDS AS C5AR INHIBITORS” (Kira Pharmaceuticals (Suzhou) Ltd., priority 2020, published 2024):

Tests used:
[1] = molecular target: human C5a receptor (C5aR) (Homo sapiens (Human), UniProt P21730); test: Inhibition of C5a-C5aR binding (biotinylated human C5a, U937/C5aR cells, FACS)
Summary of the method: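 U937 cells stably expressing human C5aR, 3×10^6 cells/ml in PBS+0.1% BSA, were co-incubated with compound and biotinylated human C5a (30 nM, working solution) on ice for 120 min. Bound ligand was stained with FITC-streptavidin for 30 min on ice and read by flow cytometry.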

[2] = molecular target: C5aR (Homo sapiens (Human), UniProt P21730); test: Calcium mobilization (U937/C5aR or HEK293/C5aR cells, FLIPR); assay type: cell-based; conditions: agonist human C5a at EC80, FLIPR
C5aR, sequence (P21730 whole entry): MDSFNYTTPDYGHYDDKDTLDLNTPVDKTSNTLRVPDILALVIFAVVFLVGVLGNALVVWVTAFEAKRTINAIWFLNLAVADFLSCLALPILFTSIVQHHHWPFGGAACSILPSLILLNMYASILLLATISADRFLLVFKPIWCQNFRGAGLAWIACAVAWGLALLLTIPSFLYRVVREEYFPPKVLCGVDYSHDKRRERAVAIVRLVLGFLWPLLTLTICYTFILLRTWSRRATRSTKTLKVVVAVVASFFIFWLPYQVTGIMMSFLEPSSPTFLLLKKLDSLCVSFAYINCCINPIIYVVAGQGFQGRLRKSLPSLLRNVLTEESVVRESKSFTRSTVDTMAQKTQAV
Summary of the method: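 U937 or HEK293 cells expressing human C5aR, plated overnight, then preincubated 60 min with compound. After Fluo-4 Direct dye loading (50 min at 37 °C, 10 min at room temperature), intracellular calcium rise on FLIPR was triggered by human C5a agonist at EC80.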

human C5a receptor (C5aR), sequence (P21730 whole entry): as above

IC50 [1] [nM] | IC50 [2] [µM] | Structure (SMILES)
2000 to 5000 | 2 to 10 | Cc1ccc(NC(=O)[C@H]2CCCN(S(=O)(=O)c3c(F)cccc3F)[C@H]2c2ccc(NC3CCCC3)cc2)cc1C(F)(F)F [Compound 19, (2R,3S)-2-(4-(cyclopentylamino)phenyl)-1-((2,6-difluorophenyl)sulfonyl)-N-(4-methyl-3-(trifluoromethyl)phenyl)piperidine-3-carboxamide]
2000 to 5000 | > 10 | Cc1ccc(NC(=O)[C@H]2CCCN(S(=O)(=O)c3c(Cl)cccc3Cl)[C@H]2c2ccc(NC3CCCC3)cc2)cc1C(F)(F)F [Compound 20, (2R,3S)-2-(4-(cyclopentylamino)phenyl)-1-((2,6-dichlorophenyl)sulfonyl)-N-(4-methyl-3-(trifluoromethyl)phenyl)piperidine-3-carboxamide]
500 to 2000 | > 10 | Cc1ccc(NC(=O)[C@H]2CCCN(S(=O)(=O)c3ccccc3C)[C@H]2c2ccc(NC3CCCC3)cc2)cc1C(F)(F)F [Compound 22, (2R,3S)-2-(4-(cyclopentylamino)phenyl)-N-(4-methyl-3-(trifluoromethyl)phenyl)-1-(o-tolylsulfonyl)piperidine-3-carboxamide]
2000 to 5000 | 2 to 10 | COc1ccccc1S(=O)(=O)N1CCC[C@H](C(=O)Nc2ccc(C)c(C(F)(F)F)c2)[C@@H]1c1ccc(NC2CCCC2)cc1 [Compound 23, (2R,3S)-2-(4-(cyclopentylamino)phenyl)-1-((2-methoxyphenyl)sulfonyl)-N-(4-methyl-3-(trifluoromethyl)phenyl)piperidine-3-carboxamide]
2000 to 5000 | > 10 | Cc1ccc(NC(=O)[C@H]2CCCN(S(=O)(=O)c3ccccc3OC(F)(F)F)[C@H]2c2ccc(NC3CCCC3)cc2)cc1C(F)(F)F [Compound 24, (2R,3S)-2-(4-(cyclopentylamino)phenyl)-N-(4-methyl-3-(trifluoromethyl)phenyl)-1-((2-(trifluoromethoxy)phenyl)sulfonyl)piperidine-3-carboxamide]
500 to 2000 | > 10 | Cc1ccc(NC(=O)[C@H]2CCCN(S(=O)(=O)c3ccccc3F)[C@H]2c2ccc(NC3CCCC3)cc2)cc1C(F)(F)F [Compound 25, (2R,3S)-2-(4-(cyclopentylamino)phenyl)-1-((2-fluorophenyl)sulfonyl)-N-(4-methyl-3-(trifluoromethyl)phenyl)piperidine-3-carboxamide]
2000 to 5000 | > 10 | Cc1ccc(NC(=O)[C@H]2CCCN(S(=O)(=O)c3ccccc3Cl)[C@H]2c2ccc(NC3CCCC3)cc2)cc1C(F)(F)F [Compound 26, (2R,3S)-1-((2-chlorophenyl)sulfonyl)-2-(4-(cyclopentylamino)phenyl)-N-(4-methyl-3-(trifluoromethyl)phenyl)piperidine-3-carboxamide]
2000 to 5000 | 2 to 10 | Cc1ccc(NC(=O)[C@H]2CCCN(S(=O)(=O)c3ccccc3Br)[C@H]2c2ccc(NC3CCCC3)cc2)cc1C(F)(F)F [Compound 27, (2R,3S)-1-((2-bromophenyl)sulfonyl)-2-(4-(cyclopentylamino)phenyl)-N-(4-methyl-3-(trifluoromethyl)phenyl)piperidine-3-carboxamide]
2000 to 5000 | 2 to 10 | Cc1ccc(NC(=O)[C@H]2CCCN(S(=O)(=O)c3ccccc3C(F)(F)F)[C@H]2c2ccc(NC3CCCC3)cc2)cc1C(F)(F)F [Compound 28, (2R,3S)-2-(4-(cyclopentylamino)phenyl)-N-(4-methyl-3-(trifluoromethyl)phenyl)-1-((2-(trifluoromethyl)phenyl)sulfonyl)piperidine-3-carboxamide]
2000 to 5000 | 2 to 10 | Cc1ccc(NC(=O)[C@H]2CCCN(S(=O)(=O)c3ccccc3S(C)(=O)=O)[C@H]2c2ccc(NC3CCCC3)cc2)cc1C(F)(F)F [Compound 29, (2R,3S)-2-(4-(cyclopentylamino)phenyl)-N-(4-methyl-3-(trifluoromethyl)phenyl)-1-((2-(methylsulfonyl)phenyl)sulfonyl)piperidine-3-carboxamide]
